From patent publication US20240287089A1, “Preparation and Uses of 7-Azaindenoisoquinolines” (Purdue Research Foundation, priority 0001, published 2024) come the findings set out here.

Data set [1] relates to RAJI lymphoma cells. Description: MTS cell viability IC50 assay. The data set is classed as cell-based. The settings on record: Homo sapiens, Raji, 72 h. As for the experimental part:
Cytotoxicity Results in Raji Non-Hodgkin's Lymphoma Cells. MTS experiments were then conducted to test the anti-proliferative effects of 7-aza-8,9-methylenedioxyindenoisoquinolines in Raji cells. Cells were incubated at 2-2000 nM of each drug for 72 h, and cell viabilities were quantified using the MTS assay. […] This potency trend generally correlated with the western blot results, in which G106 and G108 […] show weaker Myc downregulation.
(§1) MTS Cell Viability IC50 Assay. Drug solutions for MTS IC50 assays of suspension cell lines were made from DMSO stocks by serial-dilutions in 1×PBS (10010-031, Gibco). To set up treatments, drug solutions were plated in triplicates to 96-well tissue culture plates, to which cell-containing media was added to a total volume of 100 μL/well. 100%-viability controls were untreated cells. 2000 cells/well were plated for all suspension cell lines except 3000 cells/well for KMS-27 and 10000 cells/well for CHLA-32. Blanks were cell-free media. Drug treatments were maintained for 72 hr at 37° C. with 5% CO2. To quantify cells, CellTiter 96 AQueous MTS Reagent Powder (G1111, Promega) was dissolved and mixed with phenazine methosulfate (PMS, Sigma-Aldrich P9625) according to manufacturer's instructions. MTS/PMS mix ([…]) was added to treatment wells, 100%-viability control wells, and blank wells. Colors were developed at 37° C. with 5% CO2 for 4 h and absorbance at 490 nm was measured by BioTek Synergy 4 system. To obtain %-viability, A490 values were corrected by blank subtraction, normalized to 100%-viability control, and averaged. Average %-viabilities were plotted against drug dosages to obtain dose-response curves. […] For adherent cell lines, the MTS IC50 assays were conducted the same way as for suspension cell lines except for cell plating and drug treatment. For cell plating, 50 μL of 2000 cells were plated in triplicates to a 96-well tissue culture plate. Cells were allowed sufficient time to become adherent. Serial-diluted drug solutions were made the same way as in the MTS IC50 assays. To set up treatments, drug solutions were mixed with media to two-fold of the final concentrations, and 50 μL of such drug-media mix was then added to 50 μL of plated cells.

In data set [2] the test system is L-363. Briefly: MTS GI50, Myc-dependent panel. The data set is classed as cell-based. The note with it: Homo sapiens, L-363, 72 h; read-out: GI50. Here is the method:
(§2) Cytotoxicity Results in Myc-dependent Cancer Cell Lines.
as §1

Data set [3] deals with TC-32. Description: MTS GI50, Myc-dependent panel. The data set is classed as cell-based. The note with it: Homo sapiens, TC-32, 72 h; read-out: GI50. As for the experimental part:
as §2, §1

The test system of data set [4] is CCRF-CRM. Briefly: MTS GI50, Myc-dependent panel. The data set is classed as cell-based. The note with it: CCRF-CRM, 72 h; read-out: GI50. Here is the method: as §2, §1
Data set [5] concerns KMS-27. Briefly: MTS GI50, Myc-dependent panel. Format: cell-based. The settings on record: KMS-27, 72 h; read-out: GI50. As for the experimental part: as §2, §1
In data set [6] the test system is ARD. Description: MTS GI50, Myc-dependent panel. Format: cell-based. The settings on record: ARD, 72 h; read-out: GI50. As for the experimental part:
as §2, §1

Data set [7] deals with RD-ES. Briefly: MTS GI50, Myc-dependent panel. Format: cell-based. The note with it: 72 h, read-out: GI50. Here is the method:
as §2, §1

The subject of data set [8] is MOLT-4. Description: MTS GI50, Myc-dependent panel. Format: cell-based. The note with it: Homo sapiens, MOLT-4, 72 h; read-out: GI50. Here is the method: as §2, §1
In data set [9] the test system is Kasumi-1. Description: MTS GI50, Myc-dependent panel. The settings on record: Homo sapiens; Kasumi-1, 72 h; read-out: GI50. The data set is classed as cell-based. As for the experimental part:
as §2, §1

For data set [10], the system named is HL-60. Briefly: MTS GI50, Myc-dependent panel. The data set is classed as cell-based. The note with it: Homo sapiens, HL-60, 72 h; read-out: GI50. Here is the method:
as §2, §1

The subject of data set [11] is AMO-1. Description: MTS GI50, Myc-dependent panel. The data set is classed as cell-based. The note with it: Homo sapiens, AMO1; AMO-1, 72 h; read-out: GI50. Here is the method: as §2, §1
Data set [12] relates to SK-N-MC. Description: MTS GI50, Myc-dependent panel. The data set is classed as cell-based. The settings on record: Homo sapiens, 72 h, read-out: GI50. As for the experimental part: as §2, §1
For data set [13], the system named is TC-106. Description: MTS GI50, Myc-dependent panel. Format: cell-based. The note with it: TC-106, 72 h; read-out: GI50. Here is the method: as §2, §1
Data set [14] deals with K-562. Description: MTS GI50, Myc-dependent panel. The data set is classed as cell-based. The settings on record: Homo sapiens, K562; K-562, 72 h; read-out: GI50. As for the experimental part: as §2, §1
Data set [15] relates to RS4;11. Description: MTS GI50, Myc-dependent panel. The data set is classed as cell-based. The note with it: Homo sapiens; RS4;11, 72 h; read-out: GI50. Here is the method:
as §2, §1

The test system of data set [16] is RPMI-8226. Description: MTS GI50, Myc-dependent panel. Format: cell-based. The note with it: Homo sapiens, RPMI-8226, 72 h; read-out: GI50. As for the experimental part:
as §2, §1

In data set [17] the test system is CHLA-32. Briefly: MTS GI50, Myc-dependent panel. Format: cell-based. The note with it: CHLA-32, 72 h; read-out: GI50. As for the experimental part:
as §2, §1

The subject of data set [18] is CHLA-99. Description: MTS GI50, Myc-dependent panel. Format: cell-based. The settings on record: CHLA-99, 72 h; read-out: GI50. As for the experimental part:
as §2, §1

Data set [19] has as its system MDA-MB-231. Briefly: MTS GI50, Myc-dependent panel. Format: cell-based. The note with it: Homo sapiens, MDA-MB-231, 72 h; read-out: GI50. Here is the method: as §2, §1
Data set [20] relates to TC-71. Description: MTS GI50, Myc-dependent panel. Format: cell-based. The note with it: TC-71, 72 h; read-out: GI50. As for the experimental part: as §2, §1
For data set [21], the system named is MCF-7. Briefly: MTS GI50, Myc-dependent panel. Format: cell-based. The settings on record: Homo sapiens, MCF7; MCF-7, 72 h; read-out: GI50. As for the experimental part:
as §2, §1

Data set [22] has as its system THP-1. Briefly: MTS GI50, Myc-dependent panel. The settings on record: Homo sapiens, THP-1, 72 h; read-out: GI50. Format: cell-based. Here is the method: as §2, §1
The target of data set [23] is 3′-TAMRA-labeled MycG4 DNA. Briefly: Fluorescence binding assay. The settings on record: 20° C., 100 mM K+ buffer, pH 7.0; read-out: Apparent Binding Affinity Kd, app.
Protocol: Binding Affinity to the Myc G-Quadruplex. Binding affinity of eight 7-aza-8,9-methylenedioxyindenoisoquinolines to MycG4 was determined using a fluorescence binding assay with a 3′-TAMRA-labeled MycG4 DNA. Monitoring TAMRA emission upon drug titration afforded binding isotherms, from which apparent binding affinities, Kd,app, were derived.
Fluorescence-Based Binding Assays. Fluorescence-based binding assays were performed on a Jasco FP-8300 spectrofluorometer equipped with a temperature controller at 20° C. in a quartz cuvette with a 10 mm path length. 3′-TAMRA-labeled MycG4 DNA (Sigma-Aldrich) was diluted to 20 nM using a 75 mM KCl/25 mM potassium phosphate buffer, pH 7.0. […] Fluorescence intensity at 580 nm, the maximum for the free DNA, was plotted against drug:DNA ratio. The apparent binding dissociation constant, Kd,app, was derived for the binding of each compound. Using OriginPro software (OriginLab Corp., United States) the change in fluorescence intensity was fitted to a one-site binding equation,
where B0 is the initial fluorescence intensity, B is maximum change in fluorescence intensity, R is DNA concentration, and L is drug:DNA ratio.
For data set [24] the following is noted: human, 1 μM.
Protocol: Analysis of Plasma Protein Binding and Stability in Human and Mouse Blood Plasma by Equilibrium Dialysis. Frozen plasma (stored at −80° C.) was thawed immediately in a 37° C. water bath. The working solutions of test compound and control compound were prepared in DMSO at 200 μM concentration, and the working solutions were spiked into plasma. The final concentration of compound was 1 μM. The final concentration of DMSO was 0.5%. Ketoconazole was used as positive control in the assay. The dialysis membranes were soaked in ultrapure water for 60 min to separate strips, then in 20% ethanol for 20 min, and then finally in dialysis buffer for 20 min. For equilibrium dialysis, each cell contained plasma sample (150 μL) and was dialyzed against an equal volume of dialysis buffer (PBS). The assay was performed in duplicate. The dialysis plate was sealed and incubated at 37° C. with 5% CO2 at 100 rpm for 6 h. At the end of incubation, samples (50 μL) from both buffer and plasma chambers were transferred to wells of a 96-well plate. Plasma (50 μL) was added to each buffer sample and an equal volume of PBS was added to the collected plasma sample. Cold acetonitrile (400 μL) containing internal standards (IS, 100 nM alprazolam, 200 nM labetalol, 200 nM imipramine and 2 μM ketoprofen) was added to precipitate protein and release compounds. Samples were vortexed for 2 min and centrifuged for 30 min at 3,220 g. An aliquot (100 μL) of the supernatant was diluted with ultra-pure H2O (100 μL), and the mixture was used for LC-MS/MS analysis. For stability determination in plasma, a spiked plasma sample (50 μL) was transferred to a new plate and incubated at 37° C., 5% CO2 for 0 and 6 h. At designated time points, PBS (50 μL) was added and mixed thoroughly, followed by the addition of room temperature quench solution [400 μL of acetonitrile containing internal standards (IS, 100 nM alprazolam, 200 nM labetalol, 200 nM imipramine and 2 μM ketoprofen)] to precipitate protein and release compounds. Samples were vortexed for 2 min and centrifuged for 30 min at 3,220 g. An aliquot (400 μL) of the supernatant was diluted by ultra-pure H2O, and the mixture was used for LC-MS/MS analysis. The concentrations of test compounds in the buffer and plasma chambers were determined from peak area ratios.

Each structure is given as a SMILES string. Bounds are passed on as bounds.

Consider `CCNCCCn1c2c(c3cc(OC)c(OC)cc3c1=O)C(=O)c1cc3c(nc1-2)OCO3` [G104, 6-(3-(Ethylamino)propyl)-2,3-dimethoxy-5H-[1,3]dioxolo[4″,5″:5′,6′]pyrido [3′,2′:4,5]cyclopenta[1,2-c]isoquinoline-5,12(6H)-dione], for which the 50% inhibitory concentration (IC50) in data set [1] amounted to 131 nM. In addition, the GI50 in data set [2] is 96 nM; in data set [3] it was 53 nM; in data set [4] it was 49 nM; in data set [5] it was 141 nM; in [6], 55 nM; in data set [7], 20 nM. Moreover, the GI50 came to 13 nM in data set [8]; 266 nM in data set [9]; 270 nM in data set [10]; 184 nM in [11]; 137 nM in data set [12]; 157 nM in data set [13]. For the same compound, the concentration for 50% growth inhibition (GI50) came to 158 nM in [14]; 38 nM in data set [15]; 190 nM in data set [16]; 33 nM in data set [17]; 58 nM in data set [18]; 476 nM in data set [19]. The results for the concentration for 50% growth inhibition (GI50) in [20], in data set [21] and in data set [22] were 122 nM, over 2000 nM and 358 nM, respectively. For the same compound, the Kd in data set [23] turned out to be 55 nM. Further, the “% Stability at 6 hrs” value in data set [24] was found to be 86.15%.

With `COc1cc2c3c(n(CCCNCCO)c(=O)c2cc1OC)-c1nc2c(cc1C3=O)OCO2` [G105, 6-(3-((2-Hydroxyethyl)amino)propyl)-2,3-dimethoxy-5H-[1,3]dioxolo[4″,5″:5′,6′]pyrido[3′,2′:4,5]cyclopenta[1,2-c]isoquinoline-5,12(6H)-dione], the IC50 in data set [1] came out at 147 nM. For the same compound, the 50% growth inhibitory concentration (GI50) worked out at 154 nM in data set [2]; 104 nM in data set [3]; 57 nM in data set [4]; 141 nM in [5]; 121 nM in data set [6]; 22 nM in [7]. The GI50 in [8] turned out to be 12 nM; in data set [9], 530 nM; in data set [10], 290 nM; in data set [11] it was 461 nM; in data set [12] it was 173 nM; in data set [13] it was 202 nM. Further, the 50% growth inhibitory concentration (GI50) was found to be 196 nM in data set [14]; 34 nM in data set [15]; 559 nM in [16]; 96 nM in data set [17]; 31 nM in data set [18]; 806 nM in data set [19]. Further, the results for the GI50 in data set [20], in [21] and in data set [22] were 197 nM, 1390 nM and 300 nM, respectively. Moreover, the Kd in data set [23] turned out to be 97 nM. The “% Stability at 6 hrs” value in data set [24] was 95.42%.

Usually IC50 stands for the concentration needed to halve the response being measured. For orientation: GI50 means the concentration that inhibits growth by half.
